# Assay results from patent US20130047297A1, “POLYNUCLEOTIDE MOLECULES FOR GENE REGULATION IN PLANTS” (priority 2010, published 2013).
# B1: synthetic Pol III gene: dsDNA, SEQ ID NO:3, U6 snRNA elements with anti-sense and sense DNA of bacterial EPSPS (nucleic acid)
# DNA: GGCCCATAGGCCTTTTTCTAAAATAGGCCCATTTAAGCTATTAACAATCTTCAAAAGTACCACATCGCTTAGGTAAAGAAAGCAGCTGAGTTTATATATGGTTAGAGACGAAGTAGTGATTGCGACGAGCGACGTCTCGCCCTCATCGCAATCCACGCCATTGAGCTTGAGGCCATTGGCGACGGCCGAGAGGCGGTCGCTTAAGATTAGCATGTCCTTGACGCGGAGTTCTTCCAGACCGTTCATCACGGTCGCCCCTTCCGCGAAGGCGGCGGCGACAGCGAGAATCGGATATTCGTCGATCATCGAAGGCGCGCGGTCTTCCGGCACCGTGACGCATAAACACGGTGCCGGAAGACCGCGCGCCTTCGATGATCGACGAATATCCGATTCTCGCTGTCGCCGCCGCCTTCGCGGAAGGGGCGACCGTGATGAACGGTCTGGAAGAACTCCGCGTCAAGGAAAGCGACCGCCTCTCGGCCGTCGCCAATGGCCTCAAGCTCAATGGCGTGGATTGCGATGAGGGCGAGACGTCGCTCGTCGTTTTTTTTGGCAAAAA
# Assays:
# Assay type in all cases: in vivo
# [1] = test system: Glyphosate-resistant Palmer amaranth plants having 49 or 63 copies EPSPS; experiment: Salicylic acid pretreatment with dsRNA and glyphosate (Example 15); details: 15 millimolar SA 1, 5, or 24 hours before dsRNA; glyphosate 72 hours later; 7 days after glyphosate
# Description: Salicylic acid (SA) induces virus resistance in tobacco; see, e. g., Chivasa et al. (1997) Plant Cell, 19:547-557. Glyphosate-resistant Palmer amaranth plants having 49 or 63 copies EPSPS were pretreated with 15 millimolar SA. A solution of the four oligonucleotide-size “short” EPSPS dsRNA molecules (described in Example 1) was applied by hand at 1, 5, or 24 hours after treatment with SA, followed 72 hours later by spraying with glyphosate (1682 g acid equivalent per hectare of Roundup® WeatherMAX® brand herbicide).
# [2] = test system: Glyphosate-resistant Palmer amaranth plants (33, 36, or 57 copies EPSPS); experiment: Spermine, spermidine or ammonium sulfate with dsRNA then glyphosate (Example 35, FIG. 39); details: 10 mM spermidine alone
# Description: The effect of the polyamine cations spermine (N,N′-bis(3-aminopropyl)butane-1,4-diamine) and spermidine (N-(3-aminopropyl)butane-1,4-diamine) on herbicidal activity of topically applied polynucleotides (RNA) on glyphosate-resistant Palmer amaranth plants was investigated. […] The dsRNA polynucleotide solutions were prepared with either 1 or 10 millimolar spermine or spermidine or 2% ammonium sulfate, in a 10 millimolar sodium phosphate (pH 6.8) buffer. Control solutions (without polynucleotides) were prepared with either 1 or 10 millimolar spermine or spermidine or 2% ammonium sulfate, in a 10 millimolar sodium phosphate (pH 6.8) buffer. Glyphosate-resistant Palmer amaranth plants (33, 36, or 57 copies EPSPS) were pre-sprayed with 1% Silwet L-77. The dsRNA polynucleotide solutions (11.6 grams/acre) or buffer solutions were applied as drops on four lower fully expanded leaves of glyphos ate resistant Palmer amaranth by pipetting. Two days following polynucleotide treatment the plants were sprayed with glyphosate (3360 g acid equivalent per hectare of Roundup® WeatherMAX® brand herbicide).
# [3] = test system: endogenous PDS, EPSPS, or RuBisCO genes from Nicotiana benthamiana; experiment: PDS, EPSPS, RuBisCO anti-sense polynucleotides on Nicotiana benthamiana, plant height (Example 33); details: PDS 25 nanomoles, EPSPS and RuBisCO 50 nanomoles of each per plant
# Description: Nicotiana benthamiana plants were treated using a procedure similar to that described in Example 12. Polynucleotide solution (or mixed polynucleotides in the case of EPSPS and RuBisCO) were prepared in 0.01% (v/v) Silwet L-77 and 2% (w/v) ammonium sulfate in 5 millimolar sodium phosphate, pH 6.8. Two fully expanded leaves per plant were dipped into 0.1% Silwet L-77 solution freshly made with ddH2O for a few seconds, and allowed to dry. About 30 minutes later, 20 microliters of polynucleotide solution, was applied to each of the two pre-treated leaves. For PDS, each of 5 plants received 25 nanomoles of the PDS anti-sense polynucleotide (SEQ ID NO:34); for EPSPS, each of 5 plants received 50 nanomoles of each EPSPS anti-sense polynucleotide (SEQ ID NOS:279-284); and for RuBisCO, each of 5 plants received 50 nanomoles of each RuBisCO anti-sense polynucleotide (SEQ ID NOS:288-295). Paired control plants were treated with buffer (0.01% (v/v) Silwet L-77 and 2% (w/v) ammonium sulfate in 5 millimolar sodium phosphate, pH 6.8).
# [4] = test system: endogenous Nicotiana benthamiana Argonaute-1 (AGO1) gene; experiment: AGO1 anti-sense with PDS anti-sense, systemic bleaching (Example 33); details: PDS 25 nanomoles; AGO1 50 nanomoles of each of 14; combined applied on separate leaves
# Description: Nicotiana benthamiana plants were treated using a procedure similar to that described in Example 12. Polynucleotide solution (or mixed polynucleotides in the case of AGO1) were prepared in 0.01% (v/v) Silwet L-77 and 2% (w/v) ammonium sulfate in 5 millimolar sodium phosphate, pH 6.8. Two fully expanded leaves per plant were dipped into 0.1% Silwet L-77 solution freshly made with ddH2O for a few seconds, and allowed to dry. About 30 minutes later, 20 microliters of polynucleotide solution was applied to each of the two pre-treated leaves. For PDS, each of 5 plants received 25 nanomoles of the PDS anti-sense polynucleotide (SEQ ID NO:34); for AGO1, each of 5 plants received 50 nanomoles of each of the 14 AGO1 anti-sense polynucleotides (SEQ ID NOS:300-313); for PDS and AGO combined treatments, each of 5 plants received 25 nanomoles of the PDS anti-sense polynucleotide (SEQ ID NO:34) and 50 nanomoles of each of the 14 AGO1 anti-sense polynucleotides (SEQ ID NOS:300-313) applied on separate leaves. Paired control plants were treated with buffer (0.01% (v/v) Silwet L-77 and 2% (w/v) ammonium sulfate in 5 millimolar sodium phosphate, pH 6.8). No difference was observed between plants treated with the AGO1 anti-sense polynucleotides and the plants treated with buffer alone.
# [5] = test system: Nicotiana benthamiana phytoene desaturase; experiment: Topical oligonucleotides/polynucleotides on tobacco, PDS bleaching and chlorophyll (Example 10)
# Description: The following procedure was used for all assays described in this example. Four-week old Nicotiana benthamiana plants were used in all assays. Plants were treated with 0.1% Silwet L-77 solution freshly made with ddH2O. Two fully expanded leaves per plant (one cotyledon, one true leaf) were dipped into the Silwet L-77 solution for a few seconds, and allowed to dry for 15-30 minutes before application of the polynucleotide composition. Final concentration for each oligonucleotide or polynucleotide was 25 microM (in 0.01% Silwet L-77, 5 mM sodium phosphate buffer, pH 6.8) unless otherwise stated. 20 microliters of the solution was applied to the top surface of each of the two pre-treated leaves to provide a total of 40 microliters (1 nmol oligonucleotide or polynucleotide) for each plant. Leaf bleaching was observed 3 days post treatment.
# FIG. 13 illustrates phenotypes observed at day 12 after treatment in another assay of the effect from twelve combinations of polynucleotides or oligonucleotides (see Table 4). Table 4 also lists observations of visible bleaching of the plants at day 5 after treatment and the results of chlorophyll measurements taken at days 7 and 12 after treatment. Chlorophyll measurements are an indication of suppression of the target gene phytoene desaturase, and measurements were taken at 6 spots on the apical area, focussing on visibly bleached leaves or (in plants without visible bleaching) on leaves in equivalent locations on the plants; lower chlorophyll measurement values indicate suppression of phytoene desaturase.
# [6] = test system: glyphosate-resistant soybean plants; experiment: Synthetic Pol III gene dsDNA, soybean crop (Example 8); details: 0.1 wt % Silwet L-77 and dsDNA sprayed, glyphosate 7 days later; 15 days later
# Excerpt: (§1) This example illustrates the utility of employing a synthetic Pol III gene in compositions and methods of this invention. With reference to SEQ ID NO:3 and FIG. 2, a synthetic Pol III gene is created using elements from an Arabidopsis thaliana U6 snRNA gene to provide a dsDNA molecule with two copies of RGCCCR elements (bold and underlined), an upstream sequence element (USE) having the sequence “[…]” (SEQ ID NO:4, bold and underlined), a TATA box (bold and underlined), a “G” nucleotide (bold and underlined), anti-sense DNA (italics) corresponding to a bacterial DNA encoding an EPSPS protein (see U.S. Pat. No. RE39,247) that imparts resistance to glyphosate herbicide when expressed in transgenic corn plants, an “[…]” element (SEQ ID NO:5, bold and underlined) embedded in the anti-sense DNA, an “[…]” element (SEQ ID NO:6, bold and underlined) followed by sense DNA (lower case) and a “TTTTTT” terminator element (SEQ ID NO:7, bold and underlined). A solution of 0.1 wt % Silwet L-77 brand organosilicone surfactant and a solution of multiple copies of the dsDNA molecule are sprayed onto leaves of volunteer glyphosate-resistant corn plants growing in a field of glyphosate-resistant soybean plants, followed 7 days later by treatment with Roundup WeatherMAX® brand glyphosate herbicide. […]
# [7] = test system: volunteer glyphosate-resistant corn plants; experiment: Synthetic Pol III gene dsDNA on volunteer corn (Example 8); details: 0.1 wt % Silwet L-77 and dsDNA sprayed, glyphosate 7 days later; 15 days later
# Excerpt: as §1
molecule,measurement,setting,value
"O=C(O)c1ccccc1O [SA, Salicylic acid]",improvement of the effects of the dsRNAs and glyphosate activity (plant height),[1],No improvement
"NCCCCNCCCN [spermidine, N-(3-aminopropyl)butane-1,4-diamine]","plant outcome, 33-copy",[2],stunted
"PDS 21-mer anti-sense ssDNA: SEQ ID NO:34 (antisense CATCTCCTTTAATTGTACTGC; DNA, backbone not given here)",plant height (FIG. 36),[3]; 12 days (PDS and EPSPS) or 10 days (RuBisCO) after treatment,severe stunting
same,other phenotype,[3],bleaching
same,systemic bleaching / difference from buffer,[4],displayed systemic bleaching
same,bleaching of apical leaves (FIG. 15),[5]; another assay,strong bleaching
same,bleaching of apical leaves (FIG. 14),[5]; topical treatment,Strong bleaching
B1,soybean plant outcome,[6],thriving
same,corn plant outcome,[7],dead
